Assay results: US9221781B2, “Synthesis of polyhydroxy chromenone compounds and their anti-tumor effects” (BEIJING SHENOGEN PHARMA GROUP LTD., priority 2012, dated 2015)

Key:
[1] = tested on: MCF7 cells; test: CellTiter-Glo Luminescent Cell Viability Assay on ER-positive breast cancer MCF-7 cells in vitro; assay type: cell-based; details: Homo sapiens, 72 hours, read-out: Inhibition of viability of breast cancer cells IC50, MCF7 cells
Description: B: CellTiter-Glo® Luminescent Cell Viability Assay on ER-Positive Breast Cancer MCF-7 Cells In Vitro:
MCF7 cells from ATCC were maintained in an Dulbecco's modified Eagle medium (DMEM), and 10% fetal calf serum at 37 in a 5% CO2 atmosphere. Cells were placed at a density of 6×10^3 cells per well in a 96-well plate. MCF 7 cells were treated with a test compound dissolved in DMSO at the concentration of 0, 0.3 μM, 0.5 μM, 1 μM, 2 μM, 3 μM, 5 μM, 10 μM, 20 μM, 30 μM, 50 μM and 100 μM for 72 hours. Treated cells were examined through CellTiter-Glo® Luminescent Cell Viability Assay Kit (Promega), and luminescence were recorded with Envision.

[2] = tested on: Daudi cells; test: Inhibition of human B lymphoma Daudi cells by CellTiter-Glo Luminescent Assay in vitro; assay type: cell-based; details: Homo sapiens, 72 hours, read-out: Inhibition of viability of cells in vitro IC50, Daudi cells
Description: A: Inhibition of Human B Lymphoma Daudi Cells by CellTiter-Glo® Luminescent Assay In Vitro
The Human B Lymphoma Daudi cells from ATCC were maintained in IMDM and 10% fetal calf serum at 37° C. in a 5% CO2 atmosphere. The cells were subseeded in a 96-well culture plate at a concentration of 6×10^3 cells/well. Human B Lymphoma Daudi cells were treated with a test compound dissolved in DMSO at the concentration of 0, 0.3 μM, 0.5 μM, 1 μM, 2 μM, 3 μM, 10 μM, 20 μM, 30 μM, 50 μM and 100 μM for 72 hours. Treated cells were examined by CeliTiter-Glo® Luminescent Cell Viability Assay Kit (Promega), and luminescence were recorded with Envision.

[3] = tested on: BEL-7402 cells; test: Inhibition of liver cancer cell BEL-7402 in vitro by SRB; assay type: cell-based; details: Homo sapiens, 10^−6M, 72 hours, read-out: The inhibition percentage of cell proliferation by the compounds with a concentration of 10^−6M, BEL-7402 cells
Description: A: Inhibition of Liver Cancer Cell BEL-7402 In Vitro by the Compounds Detected by SRB
The liver cancer BEL-7402 cells from ATCC were maintained in DMDM, 10% NCS and 50 μg/ml KANA at 37° C. in a 5% CO2 atmosphere, and were subseeded in a 96-well culture plate at a concentration of 6×10^3 cells/well. BEL-7402 cells were treated with a test compound dissolved in DMSO at the concentration of 0, 10^−4M, 10^−5M, 10^−6M, 10^−7M, 10^−8M for 72 hours. OD value was tested by SRB method, and the inhibition percentage was calculated.

[4] = tested on: gastric cancer BGC-823 cells; test: Inhibition of gastric cancer cell BGC-823 in vitro by MTT method; assay type: cell-based; details: Homo sapiens; BGC-823, MTT, 72 hours, FIG. 4; read-out: IC50, in vitro inhibition on cell line BGC-823 of gastric cancer
Description: A: Inhibition of Gastric Cancer Cell BGC-823 In Vitro by the Compounds by MTT Method
(§1) The gastric cancer BGC-823 cells were subseeded in a 96-well culture plate at a concentration of 3×10^3 cells/well and maintained in phenol red free DMEM medium containing 2.5% CS-FBS at 37° C. in a 5% CO2 atmosphere. BGC-823 cells were treated with a test compound dissolved in DMSO at the concentration of 0, 1, 2, 4, 8, 10 and 20 μM for 72 hours. OD value was tested by MTT method, and the inhibition percentage was calculated.

[5] = tested on: colon cancer LS174T cells; test: Inhibition of colon cancer cells LS174T in vitro by MTT method; assay type: cell-based; details: Homo sapiens, 72 hours, FIG. 6, read-out: IC50, in vitro inhibition on cell line LS174T of colon carcinoma
Description: A: Inhibition of Colon Cancer Cells LS174T In Vitro by the Compounds by MTT Method
as §1, with “colon” for “gastric”, “LS174T” for “BGC-823”, “4.5×10^3” for “3×10^3”, “1640” for “DMEM”

[6] = tested on: pancreatic cancer PANC-1 cells; test: Inhibition of pancreatic cancer cells PANC-1 in vitro by MTT method; assay type: cell-based; details: Homo sapiens; PANC-1, MTT, 72 hours, FIG. 7; read-out: IC50, in vitro inhibition on cell line PANC-1 of pancreatic cancer
Description: A: Inhibition of Pancreatic Cancer Cells PANC-1 In Vitro by the Compounds by MTT Method
as §1, with “pancreatic” for “gastric”, “PANC-1” for “BGC-823”, “1640” for “DMEM”

[7] = tested on: prostate cancer cells PC-3; test: Inhibition of prostate cancer cells PC-3 in vitro by MTT method; assay type: cell-based; details: PC-3, MTT, 72 hours, FIG. 8; read-out: IC50, in vitro inhibition on cell line PC-3 of prostatic cancer
Description: A: Inhibition of Prostate Cancer Cells PC-3 In Vitro by the Compounds by MTT Method
The […] cancer PC-3 cells were subseeded in a 96-well culture plate at a concentration of 3×10^3 cells/well and maintained in medium containing 10% F12K fetal bovine serum. PC-3 cells were treated with the test compound dissolved in DMSO at the concentration of 0, 1, 2, 4, 8, 10 and 20 μM for 72 hours. OD value was tested by MTT method, and the inhibition percentage was calculated.

[8] = tested on: human endometrial cancer Ishikawa cells xenograft tumor; test: Inhibition of growth of human endometrial cancer Ishikawa cells xenografts in nude mice; assay type: in vivo; details: FIG. 11
Description: Nude mice with Human endometrial cancer Ishikawa cells Xenograft Tumor were treated with the test compounds to test their effect on inhibiting tumor growth. Tumor was taken from nude mice with Ishikawa cells and cut into small pieces. Small pieces of tumor were implanted into the armpit under the right front limb of female nude mice. After the implantation, the mice were injected with E2β solution once a day at the dosage of 7 μg per mouse for 6 days to stimulate growth in the expriment mice. […] Medroxyprogesterone acetate was used as a positive control. Mixed oil was used as a negative control. The test compound was dispersed in mixed oil (20 mg/mL). […] Then the mice were sacrificed and the tumor tissues were dissected and weighed. The tumor growth inhibition rate was a percentage calculated using the formula: tumor growth inhibition rate=(average weight of the tumor in the negative control—average weight of the tumor treated with test compound) / average weight of the tumor in the negative control. The result is drawn as bar graph, referring to FIG. 11.

- IC50 [1]: 2010 nM
- IC50 [2]: 824 nM
- IC50 [4]: 1000 to 4000 nM
- IC50 [5]: 1000 to 4000 nM
- IC50 [6]: 1000 to 4000 nM
- IC50 [7]: 1000 to 4000 nM
Compound: CC(C)=CCc1c(O)cc(O)c2c(=O)c(O)c(-c3ccc(C(F)(F)F)cc3)oc12 [Compound 1, 2-(4-trifluoromethylphenyl)-3,5,7-trihydroxy-8-(3-methyl-2-buten-1-yl)-4H-chromen-4-one]
- inhibition at 1 µM [3]: 23.7%
- average tumor weight, inhibition on tumor growth ([8]; Ishikawa bearing nude mice, 17.5, 35 and 70 mg/kg, 20 days of continuous administration): dominant inhibition on tumor growth
- inhibition effect compared with control drug DMPA ([8]; Ishikawa bearing nude mice, versus DMPA 120 mg/kg, 20 days): higher than control drug
